Data: ChEMBL document CHEMBL4699602, “Stapled and Xenopus Glucagon-Like Peptide 1 (GLP-1)-Based Dual GLP-1/Gastrin Receptor Agonists with Improved Metabolic Benefits in Rodent Models of Obesity and Diabetes” (J Med Chem, 2020)
Where a SMILES comes first, the peptide text is derived from it.

target: Glucagon-like peptide 1 receptor (Homo sapiens, UniProt P43220); assay: Agonist activity at human GLP-1R expressed in HEK293 cells assessed as stimulation of cAMP accumulation incubated for 20 mins; type: functional, cell-based
Sequence (P43220 whole entry): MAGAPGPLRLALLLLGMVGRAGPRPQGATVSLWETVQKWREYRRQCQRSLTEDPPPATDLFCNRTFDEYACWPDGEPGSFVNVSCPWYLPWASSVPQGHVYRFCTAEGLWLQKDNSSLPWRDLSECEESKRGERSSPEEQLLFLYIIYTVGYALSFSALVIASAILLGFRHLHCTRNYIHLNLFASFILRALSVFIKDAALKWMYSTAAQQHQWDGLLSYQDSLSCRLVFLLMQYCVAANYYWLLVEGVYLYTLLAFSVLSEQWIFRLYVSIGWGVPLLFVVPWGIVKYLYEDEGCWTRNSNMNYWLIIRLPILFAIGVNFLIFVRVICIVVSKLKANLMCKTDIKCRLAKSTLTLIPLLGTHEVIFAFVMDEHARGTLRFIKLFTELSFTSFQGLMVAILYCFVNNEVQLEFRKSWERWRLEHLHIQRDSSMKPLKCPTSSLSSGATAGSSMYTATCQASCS

Q: CC[C@H](C)[C@H](NC(=O)[C@H](CC(C)C)NC(=O)[C@H](Cc1c[nH]c2ccccc12)NC(=O)[C@H](CCC(=O)O)NC(=O)[C@@H](NC(=O)[C@H](Cc1ccccc1)NC(=O)[C@H](CCC(=O)O)NC(=O)[C@H](CCCCN)NC(=O)[C@H](C)NC(=O)[C@H](CS)NC(=O)[C@H](CCC(=O)O)NC(=O)[C@H](CCC(=O)O)NC(=O)[C@H](CCC(=O)O)NC(=O)[C@H](CC(C)C)NC(=O)[C@H](Cc1ccc(O)cc1)NC(=O)[C@H](CCC(=O)O)NC(=O)[C@H](CS)NC(=O)[C@@H](NC(=O)[C@H](CC(=O)O)NC(=O)[C@H](CC(N)=O)NC(=O)[C@@H](NC(=O)[C@H](Cc1ccc(O)cc1)NC(=O)[C@@H](NC(=O)CNC(=O)[C@H](CCC(=O)O)NC(=O)C(C)(C)NC(=O)[C@@H](N)Cc1c[nH]cn1)[C@@H](C)O)[C@@H](C)O)C(C)C)[C@@H](C)CC)C(=O)N[C@@H](CCCCN)C(=O)NCC(=O)N[C@@H](CCCCN)C(=O)N1CCC[C@H]1C(=O)N[C@@H](CO)C(=O)N[C@@H](CO)C(=O)NCC(=O)N[C@@H](C)C(=O)N1CCC[C@H]1C(=O)N1CCC[C@H]1C(=O)N1CCC[C@H]1C(=O)N[C@@H](CO)C(N)=O (HELM PEPTIDE1{H.[Aib].E.G.T.Y.T.N.D.V.C.E.Y.L.E.E.E.C.A.K.E.F.I.E.W.L.I.K.G.K.P.S.S.G.A.P.P.P.S.[am]}$$$$V2.0) was tested. Which EC50 did it give?
A: The EC50 was 0.15 nM.

Q: CC[C@H](C)[C@H](NC(=O)[C@H](CC(C)C)NC(=O)[C@H](Cc1c[nH]c2ccccc12)NC(=O)[C@H](CCC(=O)O)NC(=O)[C@@H](NC(=O)[C@H](Cc1ccccc1)NC(=O)[C@H](CCC(=O)O)NC(=O)[C@H](CCCCN)NC(=O)[C@H](C)NC(=O)[C@H](CS)NC(=O)[C@H](CCC(=O)O)NC(=O)[C@H](CCC(=O)O)NC(=O)[C@H](CCC(=O)O)NC(=O)[C@H](CC(C)C)NC(=O)[C@H](Cc1ccc(O)cc1)NC(=O)[C@H](CCC(=O)O)NC(=O)[C@H](CS)NC(=O)[C@@H](NC(=O)[C@H](CC(=O)O)NC(=O)[C@H](CC(N)=O)NC(=O)[C@@H](NC(=O)[C@H](Cc1ccc(O)cc1)NC(=O)[C@@H](NC(=O)CNC(=O)[C@H](CCC(=O)O)NC(=O)C(C)(C)NC(=O)[C@@H](N)Cc1c[nH]cn1)[C@@H](C)O)[C@@H](C)O)C(C)C)[C@@H](C)CC)C(=O)N[C@@H](CCCCN)C(=O)NCC(=O)N[C@@H](CCCCN)C(N)=O (HELM PEPTIDE1{H.[Aib].E.G.T.Y.T.N.D.V.C.E.Y.L.E.E.E.C.A.K.E.F.I.E.W.L.I.K.G.K.[am]}$$$$V2.0) was tested. Which EC50 did it give?
A: The EC50 was 0.32 nM.

Q: CC[C@H](C)[C@H](NC(=O)[C@H](CC(C)C)NC(=O)[C@H](Cc1c[nH]c2ccccc12)NC(=O)[C@H](CCC(=O)O)NC(=O)[C@@H](NC(=O)[C@H](Cc1ccccc1)NC(=O)[C@H](CCC(=O)O)NC(=O)[C@H](CCCCN)NC(=O)[C@H](CS)NC(=O)[C@H](C)NC(=O)[C@H](CCC(=O)O)NC(=O)[C@H](CCC(=O)O)NC(=O)[C@H](CCC(=O)O)NC(=O)[C@H](CC(C)C)NC(=O)[C@H](Cc1ccc(O)cc1)NC(=O)[C@H](CS)NC(=O)[C@@H](NC(=O)[C@@H](NC(=O)[C@H](CC(=O)O)NC(=O)[C@H](CC(N)=O)NC(=O)[C@@H](NC(=O)[C@H](Cc1ccc(O)cc1)NC(=O)[C@@H](NC(=O)CNC(=O)[C@H](CCC(=O)O)NC(=O)C(C)(C)NC(=O)[C@@H](N)Cc1c[nH]cn1)[C@@H](C)O)[C@@H](C)O)C(C)C)[C@@H](C)O)[C@@H](C)CC)C(=O)N[C@@H](CCCCN)C(=O)NCC(=O)N[C@@H](CCCCN)C(=O)N1CCC[C@H]1C(=O)N[C@@H](CO)C(=O)N[C@@H](CO)C(=O)NCC(=O)N[C@@H](C)C(=O)N1CCC[C@H]1C(=O)N1CCC[C@H]1C(=O)N1CCC[C@H]1C(=O)N[C@@H](CO)C(N)=O (HELM PEPTIDE1{H.[Aib].E.G.T.Y.T.N.D.V.T.C.Y.L.E.E.E.A.C.K.E.F.I.E.W.L.I.K.G.K.P.S.S.G.A.P.P.P.S.[am]}$$$$V2.0) was tested. Which EC50 did it give?
A: Its EC50 is 0.12 nM.

Q: With CC[C@H](C)[C@H](NC(=O)[C@H](CC(C)C)NC(=O)[C@H](Cc1c[nH]c2ccccc12)NC(=O)[C@H](CCC(=O)O)NC(=O)[C@@H](NC(=O)[C@H](Cc1ccccc1)NC(=O)[C@H](CCC(=O)O)NC(=O)[C@H](CCCCN)NC(=O)[C@H](CS)NC(=O)[C@H](C)NC(=O)[C@H](CCC(=O)O)NC(=O)[C@H](CCC(=O)O)NC(=O)[C@H](CCC(=O)O)NC(=O)[C@H](CC(C)C)NC(=O)[C@H](Cc1ccc(O)cc1)NC(=O)[C@H](CS)NC(=O)[C@@H](NC(=O)[C@@H](NC(=O)[C@H](CC(=O)O)NC(=O)[C@H](CC(N)=O)NC(=O)[C@@H](NC(=O)[C@H](Cc1ccc(O)cc1)NC(=O)[C@@H](NC(=O)CNC(=O)[C@H](CCC(=O)O)NC(=O)C(C)(C)NC(=O)[C@@H](N)Cc1c[nH]cn1)[C@@H](C)O)[C@@H](C)O)C(C)C)[C@@H](C)O)[C@@H](C)CC)C(=O)N[C@@H](CCCCN)C(=O)NCC(=O)N[C@@H](CCCCN)C(N)=O (HELM PEPTIDE1{H.[Aib].E.G.T.Y.T.N.D.V.T.C.Y.L.E.E.E.A.C.K.E.F.I.E.W.L.I.K.G.K.[am]}$$$$V2.0) as the compound, how does the EC50 read?
A: Its EC50 is 0.26 nM.

Q: For CC[C@H](C)[C@H](NC(=O)[C@H](CC(C)C)NC(=O)[C@H](Cc1c[nH]c2ccccc12)NC(=O)[C@H](CCC(=O)O)NC(=O)[C@@H](NC(=O)[C@H](Cc1ccccc1)NC(=O)[C@H](CCC(=O)O)NC(=O)[C@H](CS)NC(=O)[C@H](C)NC(=O)[C@H](C)NC(=O)[C@H](CCC(=O)O)NC(=O)[C@H](CCC(=O)O)NC(=O)[C@H](CCC(=O)O)NC(=O)[C@H](CC(C)C)NC(=O)[C@H](CS)NC(=O)[C@H](CCC(=O)O)NC(=O)[C@@H](NC(=O)[C@@H](NC(=O)[C@H](CC(=O)O)NC(=O)[C@H](CC(N)=O)NC(=O)[C@@H](NC(=O)[C@H](Cc1ccc(O)cc1)NC(=O)[C@@H](NC(=O)CNC(=O)[C@H](CCC(=O)O)NC(=O)C(C)(C)NC(=O)[C@@H](N)Cc1c[nH]cn1)[C@@H](C)O)[C@@H](C)O)C(C)C)[C@@H](C)O)[C@@H](C)CC)C(=O)N[C@@H](CCCCN)C(=O)NCC(=O)N[C@@H](CCCCN)C(=O)N1CCC[C@H]1C(=O)N[C@@H](CO)C(=O)N[C@@H](CO)C(=O)NCC(=O)N[C@@H](C)C(=O)N1CCC[C@H]1C(=O)N1CCC[C@H]1C(=O)N1CCC[C@H]1C(=O)N[C@@H](CO)C(N)=O (HELM PEPTIDE1{H.[Aib].E.G.T.Y.T.N.D.V.T.E.C.L.E.E.E.A.A.C.E.F.I.E.W.L.I.K.G.K.P.S.S.G.A.P.P.P.S.[am]}$$$$V2.0), which EC50 is on record?
A: Its EC50 is 0.19 nM.

Q: How did the EC50 turn out when CC[C@H](C)[C@H](NC(=O)[C@H](CC(C)C)NC(=O)[C@H](Cc1c[nH]c2ccccc12)NC(=O)[C@H](CCC(=O)O)NC(=O)[C@@H](NC(=O)[C@H](Cc1ccccc1)NC(=O)[C@H](CCC(=O)O)NC(=O)[C@H](CS)NC(=O)[C@H](C)NC(=O)[C@H](C)NC(=O)[C@H](CCC(=O)O)NC(=O)[C@H](CCC(=O)O)NC(=O)[C@H](CCC(=O)O)NC(=O)[C@H](CC(C)C)NC(=O)[C@H](CS)NC(=O)[C@H](CCC(=O)O)NC(=O)[C@@H](NC(=O)[C@@H](NC(=O)[C@H](CC(=O)O)NC(=O)[C@H](CC(N)=O)NC(=O)[C@@H](NC(=O)[C@H](Cc1ccc(O)cc1)NC(=O)[C@@H](NC(=O)CNC(=O)[C@H](CCC(=O)O)NC(=O)C(C)(C)NC(=O)[C@@H](N)Cc1c[nH]cn1)[C@@H](C)O)[C@@H](C)O)C(C)C)[C@@H](C)O)[C@@H](C)CC)C(=O)N[C@@H](CCCCN)C(=O)NCC(=O)N[C@@H](CCCCN)C(N)=O (HELM PEPTIDE1{H.[Aib].E.G.T.Y.T.N.D.V.T.E.C.L.E.E.E.A.A.C.E.F.I.E.W.L.I.K.G.K.[am]}$$$$V2.0) was run?
A: Its EC50 is 0.49 nM.
